Test results: US20060235076A1, “Medicinal composition for treating infection with drug-resistant staphylococcus aureus” (priority 2003, published 2006)

System: MRSA
Test: Potentiating effect of galloyl quinic acid derivatives for the antibacterial activity of oxacillin (agar plate dilution method, MIC)
Format: cell-based, Staphylococcus aureus
Protocol: According to the agar plate dilution method defined by Japan Society of Chemotherapy, MIC (Minimum inhibitory concentration) was determined. CAMHA was prepared by adding 50 mg/l of Ca-ion, 25 mg/l of Mg-ion, and 2% of NaCl to Mueller-Hinton II Agar (MHA), and it was used as a medium for use in the measurement of sensitivity. The bacterial liquid was incubated at 37° C. overnight and diluted to 10^6 CFU/ml with saline.
It was confirmed that the known substances shown below were contained in “Tara” and their MICs were determined as described in example 2 with respect to the effects of the combination use with oxacillin

[1] = ATCC 6538, with 12.5 μg/ml of compound
[2] = ATCC 6538, with 25 μg/ml of compound
[3] = ATCC 6538, with 50 μg/ml of compound
[4] = MRSA 1, with 12.5 μg/ml of compound
[5] = MRSA 1, with 25 μg/ml of compound
[6] = MRSA 1, with 50 μg/ml of compound
[7] = MRSA 2, with 12.5 μg/ml of compound
[8] = MRSA 2, with 25 μg/ml of compound
[9] = MRSA 2, with 50 μg/ml of compound
[10] = MRSA 3, with 12.5 μg/ml of compound
[11] = MRSA 3, with 25 μg/ml of compound
[12] = MRSA 3, with 50 μg/ml of compound
[13] = MRSA 4, with 12.5 μg/ml of compound
[14] = MRSA 4, with 25 μg/ml of compound
[15] = MRSA 4, with 50 μg/ml of compound
[16] = MRSA 5, with 12.5 μg/ml of compound
[17] = MRSA 5, with 25 μg/ml of compound
[18] = MRSA 5, with 50 μg/ml of compound
[19] = MRSA 6, with 12.5 μg/ml of compound
[20] = MRSA 6, with 25 μg/ml of compound
[21] = MRSA 6, with 50 μg/ml of compound
[22] = MRSA 7, with 12.5 μg/ml of compound
[23] = MRSA 7, with 25 μg/ml of compound
[24] = MRSA 7, with 50 μg/ml of compound
[25] = MRSA 8, with 12.5 μg/ml of compound
[26] = MRSA 8, with 25 μg/ml of compound
[27] = MRSA 8, with 50 μg/ml of compound
[28] = MRSA 9, with 12.5 μg/ml of compound
[29] = MRSA 9, with 25 μg/ml of compound
[30] = MRSA 9, with 50 μg/ml of compound
[31] = MRSA 10, with 12.5 μg/ml of compound
[32] = MRSA 10, with 25 μg/ml of compound
[33] = MRSA 10, with 50 μg/ml of compound
[34] = MRSA 12, with 12.5 μg/ml of compound
[35] = MRSA 12, with 25 μg/ml of compound
[36] = MRSA 12, with 50 μg/ml of compound
[37] = MRSA 16, with 12.5 μg/ml of compound
[38] = MRSA 16, with 25 μg/ml of compound
[39] = MRSA 16, with 50 μg/ml of compound
[40] = MRSA 17, with 12.5 μg/ml of compound
[41] = MRSA 17, with 25 μg/ml of compound
[42] = MRSA 17, with 50 μg/ml of compound
[43] = MRSA 18, with 12.5 μg/ml of compound
[44] = MRSA 18, with 25 μg/ml of compound
[45] = MRSA 18, with 50 μg/ml of compound
[46] = MRSA 20, with 12.5 μg/ml of compound
[47] = MRSA 20, with 25 μg/ml of compound
[48] = MRSA 20, with 50 μg/ml of compound
[49] = MRSA 21, with 12.5 μg/ml of compound
[50] = MRSA 21, with 25 μg/ml of compound
[51] = MRSA 21, with 50 μg/ml of compound
[52] = MRSA 22, with 12.5 μg/ml of compound
[53] = MRSA 22, with 25 μg/ml of compound
[54] = MRSA 22, with 50 μg/ml of compound
[55] = MRSA COL, with 12.5 μg/ml of compound
[56] = MRSA COL, with 25 μg/ml of compound
[57] = MRSA COL, with 50 μg/ml of compound
[58] = MSSA 1003, with 12.5 μg/ml of compound
[59] = MSSA 1003, with 25 μg/ml of compound
[60] = MSSA 1003, with 50 μg/ml of compound
[61] = MSSA 1010, with 12.5 μg/ml of compound
[62] = MSSA 1010, with 25 μg/ml of compound
[63] = MSSA 1010, with 50 μg/ml of compound
[64] = MSSA 1032, with 12.5 μg/ml of compound
[65] = MSSA 1032, with 25 μg/ml of compound
[66] = MSSA 1032, with 50 μg/ml of compound
[67] = RN4220, with 12.5 μg/ml of compound
[68] = RN4220, with 25 μg/ml of compound
[69] = RN4220, with 50 μg/ml of compound

COC(=O)C1(O)CC(O)C(OC(=O)c2cc(O)c(O)c(O)c2)C(OC(=O)c2cc(O)c(O)c(O)c2)C1 (stereo not drawn) [compound 1]
Oxacillin MIC [1]: <0.5 µg/mL | Oxacillin MIC [2]: <0.063 µg/mL | Oxacillin MIC [3]: <0.5 µg/mL | Oxacillin MIC [4]: 128 µg/mL | Oxacillin MIC [5]: 128 µg/mL | Oxacillin MIC [6]: 128 µg/mL | Oxacillin MIC [7]: 2 µg/mL | Oxacillin MIC [8]: 2 µg/mL | Oxacillin MIC [9]: 2 µg/mL | Oxacillin MIC [10]: <0.5 µg/mL | Oxacillin MIC [11]: 0.5 µg/mL | Oxacillin MIC [12]: 1 µg/mL | Oxacillin MIC [13]: 128 µg/mL | Oxacillin MIC [14]: 128 µg/mL | Oxacillin MIC [15]: 32 µg/mL | Oxacillin MIC [16]: 128 µg/mL | Oxacillin MIC [17]: 32 µg/mL | Oxacillin MIC [18]: 64 µg/mL | Oxacillin MIC [19]: 2 µg/mL | Oxacillin MIC [20]: 2 µg/mL | Oxacillin MIC [21]: 4 µg/mL | Oxacillin MIC [22]: 32 µg/mL | Oxacillin MIC [23]: 16 µg/mL | Oxacillin MIC [24]: 16 µg/mL | Oxacillin MIC [25]: <0.5 µg/mL | Oxacillin MIC [26]: 16 µg/mL | Oxacillin MIC [27]: 1 µg/mL | Oxacillin MIC [28]: 16 µg/mL | Oxacillin MIC [29]: 16 µg/mL | Oxacillin MIC [30]: 8 µg/mL | Oxacillin MIC [31]: 4 µg/mL | Oxacillin MIC [32]: 8 µg/mL | Oxacillin MIC [33]: 8 µg/mL | Oxacillin MIC [34]: 16 µg/mL | Oxacillin MIC [35]: 16 µg/mL | Oxacillin MIC [36]: 16 µg/mL | Oxacillin MIC [37]: 128 µg/mL | Oxacillin MIC [38]: 128 µg/mL | Oxacillin MIC [39]: 64 µg/mL | Oxacillin MIC [40]: 32 µg/mL | Oxacillin MIC [41]: 32 µg/mL | Oxacillin MIC [42]: 4 µg/mL | Oxacillin MIC [43]: 128 µg/mL | Oxacillin MIC [44]: 128 µg/mL | Oxacillin MIC [45]: 32 µg/mL | Oxacillin MIC [46]: <0.5 µg/mL | Oxacillin MIC [47]: 0.25 µg/mL | Oxacillin MIC [48]: <0.5 µg/mL | Oxacillin MIC [49]: <0.5 µg/mL | Oxacillin MIC [50]: 0.25 µg/mL | Oxacillin MIC [51]: 1 µg/mL | Oxacillin MIC [52]: 1 µg/mL | Oxacillin MIC [53]: 0.5 µg/mL | Oxacillin MIC [54]: 1 µg/mL | Oxacillin MIC [55]: 8 µg/mL | Oxacillin MIC [56]: 32 µg/mL | Oxacillin MIC [57]: 2 µg/mL | Oxacillin MIC [58]: <0.5 µg/mL | Oxacillin MIC [59]: 0.25 µg/mL | Oxacillin MIC [60]: <0.5 µg/mL | Oxacillin MIC [61]: <0.5 µg/mL | Oxacillin MIC [62]: 0.5 µg/mL | Oxacillin MIC [63]: <0.5 µg/mL | Oxacillin MIC [64]: <0.5 µg/mL | Oxacillin MIC [65]: 0.25 µg/mL | Oxacillin MIC [66]: <0.5 µg/mL | Oxacillin MIC [67]: <0.5 µg/mL | Oxacillin MIC [68]: 0.125 µg/mL | Oxacillin MIC [69]: <0.5 µg/mL

COC(=O)C1(O)CC(OC(=O)c2cc(O)c(O)c(O)c2)C(OC(=O)c2cc(O)c(O)c(O)c2)C(OC(=O)c2cc(O)c(O)c(O)c2)C1 (stereo not drawn) [compound 2]
Oxacillin MIC [1]: <0.5 µg/mL | Oxacillin MIC [2]: <0.5 µg/mL | Oxacillin MIC [3]: <0.5 µg/mL | Oxacillin MIC [4]: >256 µg/mL | Oxacillin MIC [5]: >256 µg/mL | Oxacillin MIC [6]: >256 µg/mL | Oxacillin MIC [7]: 256 µg/mL | Oxacillin MIC [8]: 32 µg/mL | Oxacillin MIC [9]: 32 µg/mL | Oxacillin MIC [10]: 64 µg/mL | Oxacillin MIC [11]: 32 µg/mL | Oxacillin MIC [12]: 32 µg/mL | Oxacillin MIC [13]: 256 µg/mL | Oxacillin MIC [14]: 256 µg/mL | Oxacillin MIC [15]: 256 µg/mL | Oxacillin MIC [16]: >256 µg/mL | Oxacillin MIC [17]: 256 µg/mL | Oxacillin MIC [18]: 256 µg/mL | Oxacillin MIC [19]: 128 µg/mL | Oxacillin MIC [20]: 32 µg/mL | Oxacillin MIC [21]: 64 µg/mL | Oxacillin MIC [22]: 256 µg/mL | Oxacillin MIC [23]: 128 µg/mL | Oxacillin MIC [24]: 64 µg/mL | Oxacillin MIC [25]: 64 µg/mL | Oxacillin MIC [26]: 64 µg/mL | Oxacillin MIC [27]: 64 µg/mL | Oxacillin MIC [28]: >256 µg/mL | Oxacillin MIC [29]: 256 µg/mL | Oxacillin MIC [30]: 128 µg/mL | Oxacillin MIC [31]: 64 µg/mL | Oxacillin MIC [32]: 64 µg/mL | Oxacillin MIC [33]: 64 µg/mL | Oxacillin MIC [34]: 256 µg/mL | Oxacillin MIC [35]: 128 µg/mL | Oxacillin MIC [36]: 256 µg/mL | Oxacillin MIC [37]: >255 µg/mL | Oxacillin MIC [38]: 256 µg/mL | Oxacillin MIC [39]: 256 µg/mL | Oxacillin MIC [40]: 128 µg/mL | Oxacillin MIC [41]: 256 µg/mL | Oxacillin MIC [42]: 256 µg/mL | Oxacillin MIC [43]: 256 µg/mL | Oxacillin MIC [44]: 128 µg/mL | Oxacillin MIC [45]: 128 µg/mL | Oxacillin MIC [46]: 8 µg/mL | Oxacillin MIC [47]: 2 µg/mL | Oxacillin MIC [48]: 4 µg/mL | Oxacillin MIC [49]: 32 µg/mL | Oxacillin MIC [50]: 8 µg/mL | Oxacillin MIC [51]: 16 µg/mL | Oxacillin MIC [52]: 32 µg/mL | Oxacillin MIC [53]: 16 µg/mL | Oxacillin MIC [54]: 32 µg/mL | Oxacillin MIC [55]: 256 µg/mL | Oxacillin MIC [56]: 128 µg/mL | Oxacillin MIC [57]: 128 µg/mL | Oxacillin MIC [58]: <0.5 µg/mL | Oxacillin MIC [59]: <0.5 µg/mL | Oxacillin MIC [60]: <0.5 µg/mL | Oxacillin MIC [61]: <0.5 µg/mL | Oxacillin MIC [62]: <0.5 µg/mL | Oxacillin MIC [63]: <0.5 µg/mL | Oxacillin MIC [64]: <0.5 µg/mL | Oxacillin MIC [65]: <0.5 µg/mL | Oxacillin MIC [66]: <0.5 µg/mL | Oxacillin MIC [67]: <0.5 µg/mL | Oxacillin MIC [68]: <0.5 µg/mL | Oxacillin MIC [69]: <0.5 µg/mL
